Here are results for 2 compounds from ChEMBL document CHEMBL1150898, “Synthesis and dopamine receptor selectivity of the benzyltetrahydroisoquinoline, (R)-(+)-nor-roefractine” (J Nat Prod, 1998).

One assay addresses D(2) dopamine receptor (Rattus norvegicus, UniProt P61169). As to the kind of experiment: Displacement of [3H]raclopride from rat striatal dopamine D2 receptor.
Another assay concerns the target D(1A) dopamine receptor (Rattus norvegicus, UniProt P18901). As to the kind of experiment: Displacement of [3H]SCH-23390 from rat striatal dopamine D1 receptor. A general note: Loss of bound radioactivity is the signal in a displacement assay; it reports binding, not function.
For the next assay, the species on record is Rattus norvegicus. As to the kind of experiment: Selectivity for rat striatal dopamine D2 receptor over rat striatal dopamine D1 receptor.

Usually IC50 stands for the concentration at which inhibition is half-maximal.

Sequence of D(2) dopamine receptor (P61169 whole entry): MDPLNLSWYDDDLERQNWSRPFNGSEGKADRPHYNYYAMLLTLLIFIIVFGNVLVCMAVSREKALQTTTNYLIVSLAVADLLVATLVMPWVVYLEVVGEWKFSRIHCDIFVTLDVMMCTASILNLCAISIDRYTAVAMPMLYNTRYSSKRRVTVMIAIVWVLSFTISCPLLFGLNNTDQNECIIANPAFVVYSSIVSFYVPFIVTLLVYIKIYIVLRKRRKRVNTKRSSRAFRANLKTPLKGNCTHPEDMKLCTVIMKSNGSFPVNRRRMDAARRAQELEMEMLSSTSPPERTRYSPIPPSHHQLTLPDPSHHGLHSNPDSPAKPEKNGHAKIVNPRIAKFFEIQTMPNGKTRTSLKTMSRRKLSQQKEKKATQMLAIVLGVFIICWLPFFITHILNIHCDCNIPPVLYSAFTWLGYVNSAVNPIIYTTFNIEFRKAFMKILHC
Sequence of D(1A) dopamine receptor (P18901 whole entry): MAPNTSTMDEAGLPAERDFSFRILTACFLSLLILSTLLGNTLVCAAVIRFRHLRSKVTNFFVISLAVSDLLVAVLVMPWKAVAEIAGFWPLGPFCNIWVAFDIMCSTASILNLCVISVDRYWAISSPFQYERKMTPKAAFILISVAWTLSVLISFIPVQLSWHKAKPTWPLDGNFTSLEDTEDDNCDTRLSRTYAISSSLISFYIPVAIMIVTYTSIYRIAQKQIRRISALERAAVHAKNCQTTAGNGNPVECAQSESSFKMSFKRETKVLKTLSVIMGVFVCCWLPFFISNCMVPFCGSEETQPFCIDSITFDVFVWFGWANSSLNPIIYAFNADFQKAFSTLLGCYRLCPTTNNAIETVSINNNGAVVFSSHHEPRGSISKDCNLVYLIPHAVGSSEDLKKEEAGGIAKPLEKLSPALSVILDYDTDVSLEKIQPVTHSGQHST

For `COc1cc2c(cc1O)[C@@H](Cc1ccc(O)cc1)NCC2`, the IC50 is 130 nM on D(2) dopamine receptor and 0.24 µM on D(1A) dopamine receptor.
In the case of `COc1ccc(C[C@H]2NCCc3cc(O)c(OC)cc32)cc1` [NOR-ROEFRACTINE], the figures for the IC50 on D(2) dopamine receptor and at D(1A) dopamine receptor were 5000 nM and 32.9 µM, respectively. Also, in the assay filed under Rattus norvegicus, the Selectivity ratio stood at 6.
